In article PMC9000012, “Amorphous Inclusion Complexes: Molecular Interactions of Hesperidin and Hesperetin with HP-Β-CD and Their Biological Effects” (International Journal of Molecular Sciences, 2022):
Converted amounts (≈) assume the structure as drawn. “Also recorded” adds a separate entry of the source. Read-outs that look alike come from different tables or passages of the source.

Columns and labels:
[1] = PAMPA GIT permeability assay; type: in vitro ADME
Experimental: (§1) In vitro gastrointestinal (GIT) and blood–brain barrier (BBB) permeability was studied using the PAMPA (Parallel Artificial Membrane Permeability Assay) model. The sandwich consists of two 96-well microfilter plates. The PAMPA system contains two chambers: the donor at the bottom and the acceptor chamber at the top. The chambers are separated by a 120 μm thick microfilter disc coated with a 20% (w/v) dodecane solution of a lecithin mixture (Pion, Inc.). The analyzed samples were prepared by dissolving an excess amount of pure compound and systems in water. In addition, the pure compound was dissolved in DMSO. The donor solution was adjusted to pH ≈ 6.8 for GIT application and to pH ≈ 7.4 for BBB application using 0.5 M NaOH. The plates were combined and then incubated for 4 h for both models in a humidity-saturated atmosphere with the temperature set at 37 °C. The apparent permeability coefficient (Papp) was calculated according to the following equation: Papp=−ln(1−CA/Cequilibrium)/S×(1/VD+1/VA)×t where VD is donor volume; VA is acceptor volume; Cequilibrium is equilibrium concentration, Cequilibrium=CD×VD+CA×VA/VD+VA; S is membrane area; and t is incubation time (in seconds).

physchem = type: physicochemical; conditions: for improvement in solubility: by amorphous inclusion complexes with HP-β-CD; for solubility at 24 h: thermodynamic from solid
Experimental: Concentrations of Hed and Het during solubility, dissolution rate, and permeability studies were measured by high-performance liquid chromatography with the DAD detector (HPLC-DAD). In this study, a Shimadzu Nexera (Shimadzu Corp., Kyoto, Japan) equipped with SCL-40 system controller; DGU-403 degassing unit; LC-40B XR solvent delivery module; SIL-40C XR auto sampler; CTO-40C column oven; SPD-M40 photo diode array detector, was used. For the stationary phase, a Dr. Maisch ReproSil-Pur Basic-C18 100 Å column, 5 µm particle size, 250 × 4.60 mm (Dr. Maisch, Ammerbuch-Entringen, Germany), was used. The mobile phase was methanol/0.1% acetic acid (65:35 v/v). The mobile phase was vacuum-filtered through a 0.45 µm nylon filter (Phenomenex, CA, USA). The experimental conditions were as follows: 0.9 mL·min^−1 flow rate, wavelength 280 nm for Hed and 288 nm for Het, and the column temperature at 30 °C. The injection volume differed depending on the assay. […] The method duration time was 10 min.
A total of 0.1 M HCl was obtained from the analytical weighed amount in accordance with the BASF SE recommendations. Phosphate buffer at pH 6.8 was prepared according to the following description: in a 1000 mL volumetric flask, we placed 250 mL of 0.2 N potassium dihydrogen phosphate solution, then added 112 mL of 0.2 N sodium hydroxide solution and filled the mixture up to 1000 mL with distilled water. High-quality pure water was prepared using a Direct-Q 3 UV purification system (Millipore, Molsheim, France, model Exil SA 67120).
An excess number of obtained systems and physical mixtures was placed in a 10 mL glass tube; then, 5.0 mL of medium (water, HCl 0.1 N or phosphate buffer (pH 6.8)) was added. All samples were mixed using a vortex mixer for 30 s and left at room temperature for 24 h. The obtained solutions were filtered through a 0.2 μm nylon membrane filter (Sigma-Aldrich, St. Louis, MO, USA) and analyzed for Hed and Het content using the developed and validated the HPLC method. The analysis was performed in triplicate.

[2] = PAMPA BBB permeability assay; type: in vitro ADME; conditions: for Papp at 4 h: PAMPA
Experimental: as §1

AChE = biological target: T1, AChE (Homo sapiens, UniProt P22303); experiment: Acetylcholinesterase (AChE) inhibition assay; type: biochemical
T1 construct: purchased Sigma Aldrich, Germany
Experimental: (§2) To assess the activity of Hed, Het, and systems, the spectrometric method according to the outlined procedure was applied. A Multiskan GO 1510 (Thermo Fisher Scientific, Vantaa, Finland) plate reader was used for measurements of 96-well plates of the maximum volume of 300 μL. The hydrolysis of acetylthiocholine/butyrylthiocholine caused a color change. The absorbance of the enzymes was measured at a wavelength of 412 nm, 10 min after pipetting on a microplate. The reaction mixture containing 0.1 mL of 0.3 mM 5,5-dithio-bis-(2-nitrobenzoic acid) (DTNB, Sigma Aldrich, Germany), 10 mM NaCl and 2 mM MgCl2·6H2O solution, 0.575 mL 50 mM Tris-HCl buffer (pH = 8.0), 25 µL of 0.28 units/mL AChE/BChE (Sigma Aldrich, Germany), and 0.2 mL of the tested system was measured at a wavelength of 405 nm and at a temperature of 22 °C. The measurement was conducted after 20 min (BChE) or 60 min (AChE) after adding all ingredients into a microplate. The blank sample contained Tris-HCl buffer instead of the tested compounds. All samples were analyzed in six independent replicates. The inhibitory activity of each enzyme was calculated with the use of following equation: Inhibition ability (%)=100−Ap−Abp×100/Ak−Ab where Ak is absorbance of control, Ab is the blank of the control, Ap is the absorbance of the sample, and Abp is the blank of the sample.

BChE = biological target: T2, BChE (Homo sapiens, UniProt P06276); experiment: Butyrylcholinesterase (BChE) inhibition assay; type: biochemical
T2 construct: purchased Sigma Aldrich, Germany
Experimental: as §2

[3] = design: method as in doi:10.1016/j.lwt.2019.03.059; conditions: cited from earlier work

T2 sequence (P06276 29-602, species assumed): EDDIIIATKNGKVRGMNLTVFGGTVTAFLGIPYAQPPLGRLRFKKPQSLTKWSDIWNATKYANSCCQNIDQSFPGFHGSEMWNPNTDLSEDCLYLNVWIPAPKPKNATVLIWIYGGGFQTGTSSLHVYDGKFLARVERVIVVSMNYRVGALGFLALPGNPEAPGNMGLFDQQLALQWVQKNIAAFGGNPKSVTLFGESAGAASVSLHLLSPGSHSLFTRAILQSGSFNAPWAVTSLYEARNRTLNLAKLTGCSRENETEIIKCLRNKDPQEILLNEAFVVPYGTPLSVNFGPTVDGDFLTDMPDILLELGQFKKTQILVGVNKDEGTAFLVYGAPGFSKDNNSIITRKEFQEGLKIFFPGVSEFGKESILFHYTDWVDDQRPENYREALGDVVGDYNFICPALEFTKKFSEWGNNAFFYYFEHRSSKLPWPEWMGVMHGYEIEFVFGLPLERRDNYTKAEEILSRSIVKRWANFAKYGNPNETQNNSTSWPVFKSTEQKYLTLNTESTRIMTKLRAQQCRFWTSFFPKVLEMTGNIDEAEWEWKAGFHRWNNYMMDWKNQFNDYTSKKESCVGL
T1 sequence (P22303 32-614): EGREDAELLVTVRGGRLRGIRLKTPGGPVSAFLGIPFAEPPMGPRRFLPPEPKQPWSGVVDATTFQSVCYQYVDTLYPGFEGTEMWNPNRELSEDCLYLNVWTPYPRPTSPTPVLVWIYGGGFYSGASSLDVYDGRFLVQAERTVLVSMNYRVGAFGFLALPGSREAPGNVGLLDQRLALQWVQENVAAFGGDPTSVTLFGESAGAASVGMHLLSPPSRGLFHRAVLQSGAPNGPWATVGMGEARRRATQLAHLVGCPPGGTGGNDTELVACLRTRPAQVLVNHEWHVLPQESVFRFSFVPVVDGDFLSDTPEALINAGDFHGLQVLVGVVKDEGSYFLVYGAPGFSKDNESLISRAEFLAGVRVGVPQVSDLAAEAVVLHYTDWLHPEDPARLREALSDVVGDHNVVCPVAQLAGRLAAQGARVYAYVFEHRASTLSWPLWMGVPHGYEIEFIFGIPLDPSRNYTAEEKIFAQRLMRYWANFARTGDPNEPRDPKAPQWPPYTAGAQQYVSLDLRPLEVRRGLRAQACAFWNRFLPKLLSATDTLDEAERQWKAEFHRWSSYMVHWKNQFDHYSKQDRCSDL

| Compound | GIT PAMPA permeability, result in words ([1]; PAMPA) | Papp at 4 h ([1]; PAMPA, pH 6.8) [×10⁻⁶ cm/s] | improvement in solubility (physchem) | solubility at 24 h (physchem; pH 6.8, aqueous buffer) [µg/mL] | solubility at 24 h (physchem; simulated gastric fluid) [µg/mL] | solubility at 24 h (physchem; water) [µg/mL] | Papp at 4 h ([2]; pH 7.4) [×10⁻⁶ cm/s] | AChE inhibition (AChE) [%] | BChE inhibition (BChE) [%] | Papp at 4 h ([1]; PAMPA, compound dissolved in DMSO, donor pH ≈ 6.8, 4 h, 37 °C, read-out: PAMPA GIT Papp) [×10⁻⁶ cm/s] | GIT PAMPA permeability, result in words ([1]; passive diffusion) | Papp at 4 h ([2]; compound dissolved in DMSO, donor pH ≈ 7.4, 4 h, 37 °C, read-out: PAMPA BBB Papp) [×10⁻⁶ cm/s] | BBB PAMPA permeability, result in words ([2]; passive diffusion) | improved solubility ([3]; Het complex with HP-β-CD) [fold] | improved solubility ([3]; Het complex with β-CD) [fold] |
| --- | --- | --- | --- | --- | --- | --- | --- | --- | --- | --- | --- | --- | --- | --- | --- |
| COc1ccc([C@@H]2CC(=O)c3c(O)cc(O[C@@H]4O[C@H](CO[C@@H]5O[C@@H](C)[C@H](O)[C@@H](O)[C@H]5O)[C@@H](O)[C@H](O)[C@H]4O)cc3O2)cc1O [Hed, hesperidin] | poorly absorbed | 0.0554 | over 1000 times | 9 ± 2 (≈ 14.7 µM) | 8 ± 3 (≈ 13.1 µM) | 9 ± 1 (≈ 14.7 µM) | 0.558 | 9.24 ± 0.81 | 13.86 ± 1.62 | – | – | – | – | – | – |
| COc1ccc([C@@H]2CC(=O)c3c(O)cc(O)cc3O2)cc1O [Het, hesperetin] | – | – | > 2000 times | 15 ± 0.2 (≈ 49.6 µM) | 6 ± 0.1 (≈ 19.8 µM) | 8 ± 0.1 (≈ 26.5 µM) | – | – | 12.96 ± 3.15 | 9.61 | readily absorbed; also recorded: well absorbed | 5.58 | easily able to pass this biological barrier; also recorded: crosses the blood–brain barrier | 467 | 30 |
